Data: patent US5493008A, “Two non-contiguous regions contribute to nidogen binding to a single EGF-like motif of the laminin γ1 chain” (The University Of Virginia Patent Foundation, priority 1994, dated 1996)
Like-named read-outs stand apart in the source and are kept apart here. Where a SMILES comes first, the peptide text is derived from it. Where no end group is shown, it is not given here.

Molecular target: T1, nidogen (Mus musculus, UniProt P10493)
T1 sequence (P10493 29-1245): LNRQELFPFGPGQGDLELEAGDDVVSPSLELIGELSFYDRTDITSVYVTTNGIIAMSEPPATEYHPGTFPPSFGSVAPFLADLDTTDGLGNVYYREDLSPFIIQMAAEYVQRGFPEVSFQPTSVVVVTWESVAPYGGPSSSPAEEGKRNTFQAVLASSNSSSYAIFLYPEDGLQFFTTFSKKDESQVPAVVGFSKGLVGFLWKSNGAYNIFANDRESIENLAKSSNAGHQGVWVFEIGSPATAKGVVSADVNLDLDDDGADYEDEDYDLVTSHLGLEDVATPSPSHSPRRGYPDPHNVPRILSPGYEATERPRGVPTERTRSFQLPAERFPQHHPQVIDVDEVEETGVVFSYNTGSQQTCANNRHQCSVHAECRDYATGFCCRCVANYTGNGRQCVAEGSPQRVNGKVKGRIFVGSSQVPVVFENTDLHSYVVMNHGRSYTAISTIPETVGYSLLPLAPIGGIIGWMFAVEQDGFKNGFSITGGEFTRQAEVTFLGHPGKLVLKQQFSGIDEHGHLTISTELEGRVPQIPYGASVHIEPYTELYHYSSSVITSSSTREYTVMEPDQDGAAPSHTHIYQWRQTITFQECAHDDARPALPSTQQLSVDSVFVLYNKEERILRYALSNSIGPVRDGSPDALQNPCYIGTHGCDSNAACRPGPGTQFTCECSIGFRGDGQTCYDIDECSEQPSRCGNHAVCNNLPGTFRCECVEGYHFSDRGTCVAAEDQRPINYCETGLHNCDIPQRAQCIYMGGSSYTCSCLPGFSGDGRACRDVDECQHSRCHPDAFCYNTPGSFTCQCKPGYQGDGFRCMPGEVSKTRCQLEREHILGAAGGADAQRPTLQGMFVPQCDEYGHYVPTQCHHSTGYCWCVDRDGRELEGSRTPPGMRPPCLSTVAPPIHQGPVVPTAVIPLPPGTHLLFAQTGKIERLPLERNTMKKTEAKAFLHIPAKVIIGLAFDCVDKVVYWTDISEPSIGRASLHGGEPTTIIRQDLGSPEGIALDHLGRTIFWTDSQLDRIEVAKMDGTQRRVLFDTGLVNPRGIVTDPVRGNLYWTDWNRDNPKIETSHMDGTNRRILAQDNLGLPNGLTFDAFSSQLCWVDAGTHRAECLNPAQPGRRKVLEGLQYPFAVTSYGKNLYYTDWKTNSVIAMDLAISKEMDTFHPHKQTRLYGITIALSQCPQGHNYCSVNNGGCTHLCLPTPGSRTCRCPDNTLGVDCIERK
Experiment: Radioligand competition assay: inhibition of 125I-laminin fragment P1 binding to nidogen
Conditions: for inhibitory activity in words: laminin-nidogen binding competition; for IC50 higher / less active than fragment P1: relative to laminin fragment P1
Procedure: A radioligand competition assay was used for measurement of relative binding affinities (Mann K. et al. (1988), Eur. J. Biochem., 178, 71-80; Fox, J. W. et al. (1991), EMBO J., 10, 3137-3146). A fixed concentration of recombinant nidogen (0.2 nM) was incubated overnight at 4° C. with inhibitors at varying concentrations, followed by the addition of ^125 I-labeled laminin fragment P1 (0.01 nM; 10,000-20,000 c.p.m.) for the same incubation period. Bound and non-bound fragment P1 was then separated by antibodies against nidogen. Competitor concentrations causing 50% inhibition (IC50) were determined from dose-response profiles. […] IC50 values compared from different assays were normalized to a single fragment P1 value.

[1] = Table II, synthetic loops of EGF-like repeat 4 and smaller synthetic and proteolytic fragments, read-out: IC50 (inhibitory capacity)
[2] = Table III, amino acid replacements in heptapeptide NIDPNAV, read-out: IC50 (inhibitory capability for laminin-nidogen binding)
[3] = Table IV, recombinant mutants and chimeric structures of γ1III4, read-out: IC50 (inhibitory activity for laminin-nidogen binding)

Compound: CC(C)C[C@H](NC(=O)[C@H](CS)NC(=O)[C@H](CCC(=O)O)NC(=O)CNC(=O)[C@@H](NC(=O)[C@H](CC(C)C)NC(=O)[C@H](CCCNC(=N)N)NC(=O)[C@H](CC(N)=O)NC(=O)[C@H](CS)NC(=O)[C@H](CC(N)=O)NC(=O)CNC(=O)[C@@H](NC(=O)[C@H](C)NC(=O)[C@H](CC(N)=O)NC(=O)[C@@H]1CCCN1C(=O)[C@@H](N)CC(=O)O)C(C)C)[C@@H](C)O)C(=O)O [E2, DPNAVGNCNRLTGECL] (H-DPNAVGNCNRLTGECL-OH; C-terminus assumed)
- IC50 [1]: 3000 nM

Compound: NC(=O)CC[C@H](NC(=O)[C@H](CS)NC(=O)[C@@H]1CCCN1)C(=O)N[C@@H](CS)C(=O)N[C@@H](CC(N)=O)C(=O)O [E3, PCQCN] (H-PCQCN-OH; N-terminus assumed)
- IC50 [1]: > 96000 nM
- inhibitory activity in words: inactive

Compound: CC[C@H](C)[C@H](NC(=O)[C@H](CC(N)=O)NC(=O)[C@H](CC(=O)O)NC(=O)[C@H](CC(N)=O)NC(=O)[C@H](CS)NC(=O)[C@H](CCC(N)=O)NC(=O)[C@H](CS)NC(=O)[C@@H]1CCCN1)C(=O)N[C@@H](CC(=O)O)C(=O)N1CCC[C@H]1C(=O)N[C@@H](CC(N)=O)C(=O)N[C@@H](C)C(=O)N[C@H](C(=O)NCC(=O)N[C@@H](CC(N)=O)C(=O)N[C@@H](CS)C(=O)N[C@@H](CC(N)=O)C(=O)N[C@@H](CCCNC(=N)N)C(=O)O)C(C)C [T1, PCQCNDNTDPNAVGNCNR]
- inhibitory activity in words: undiminished activity

Compound: CC[C@H](C)[C@H](NC(=O)[C@H](CC(N)=O)NC(=O)[C@H](CC(=O)O)NC(=O)[C@H](CC(N)=O)NC(=O)[C@H](CS)NC(=O)[C@H](CCC(N)=O)NC(=O)[C@H](CS)NC(=O)[C@@H]1CCCN1)C(=O)N[C@@H](CC(=O)O)C(=O)N1CCC[C@H]1C(=O)N[C@@H](CC(N)=O)C(=O)N[C@@H](C)C(=O)N[C@H](C(=O)NCC(=O)N[C@@H](CC(N)=O)C(=O)N[C@@H](CS)C(=O)N[C@@H](CC(N)=O)C(=O)N[C@@H](CCCNC(=N)N)C(=O)N[C@@H](CC(C)C)C(=O)N[C@H](C(=O)NCC(=O)N[C@@H](CCC(=O)O)C(=O)N[C@@H](CS)C(=O)N[C@@H](CC(C)C)C(=O)O)[C@@H](C)O)C(C)C [loop a,b, non-oxidized] (H-PCQCNDNIDPNAVGNCNRLTGECL-OH; N-terminus and C-terminus assumed)
- IC50 higher / less active than fragment P1: 5,000 fold

Compound: CC[C@H](C)[C@@H]1NC(=O)[C@H](CC(N)=O)NC(=O)[C@H](CC(=O)O)NC(=O)[C@H](CC(N)=O)NC(=O)[C@@H]2CSSC[C@@H](C(=O)N[C@@H](CC(C)C)C(=O)O)NC(=O)[C@H](CCC(=O)O)NC(=O)CNC(=O)[C@H]([C@@H](C)O)NC(=O)[C@H](CC(C)C)NC(=O)[C@H](CCCNC(=N)N)NC(=O)[C@H](CC(N)=O)NC(=O)[C@H](CSSC[C@H](NC(=O)[C@@H]3CCCN3)C(=O)N[C@@H](CCC(N)=O)C(=O)N2)NC(=O)[C@H](CC(N)=O)NC(=O)CNC(=O)[C@H](C(C)C)NC(=O)[C@H](C)NC(=O)[C@H](CC(N)=O)NC(=O)[C@@H]2CCCN2C(=O)[C@H](CC(=O)O)NC1=O [loop a,b, oxidized] (HELM PEPTIDE1{P.C.Q.C.N.D.N.I.D.P.N.A.V.G.N.C.N.R.L.T.G.E.C.L}$PEPTIDE1,PEPTIDE1,2:R3-16:R3|PEPTIDE1,PEPTIDE1,4:R3-23:R3$$$V2.0)
- IC50 (read-out: IC50): 400 nM

Compound: CC[C@H](C)[C@@H]1NC(=O)[C@@H](NC(=O)[C@H](CCCCN)NC(=O)[C@H](CC(C)C)NC(=O)[C@@H]2CSSC[C@H](NC(=O)[C@@H](N)CCC(N)=O)C(=O)N[C@@H](CC(N)=O)C(=O)N[C@@H](CC(=O)O)C(=O)N[C@@H](CC(N)=O)C(=O)N[C@@H]([C@@H](C)CC)C(=O)N[C@@H](CC(=O)O)C(=O)N3CCC[C@H]3C(=O)N[C@@H](CC(N)=O)C(=O)N[C@@H](C)C(=O)N[C@@H](C(C)C)C(=O)NCC(=O)N2)CSSC[C@@H](C(=O)N[C@@H](CC(=O)O)C(=O)O)NC(=O)[C@H](Cc2ccc(O)cc2)NC(=O)[C@H](Cc2ccccc2)NC(=O)CNC(=O)[C@H](C)NC(=O)[C@H]([C@@H](C)O)NC(=O)[C@H](CC(N)=O)NC(=O)[C@H](Cc2ccc(O)cc2)NC1=O [loop a,c, oxidized, QCNDNIDPNAVGCLKC1YNTAGFYCD] (HELM PEPTIDE1{Q.C.N.D.N.I.D.P.N.A.V.G.C.L.K.C.I.Y.N.T.A.G.F.Y.C.D}$PEPTIDE1,PEPTIDE1,2:R3-13:R3|PEPTIDE1,PEPTIDE1,16:R3-25:R3$$$V2.0; N-terminus and C-terminus assumed)
- IC50 higher / less active than fragment P1: 300 fold
- higher inhibitory activity compared with loop a,b (relative to synthetic loop a,b peptide): 20 fold

Compound: CC[C@H](C)[C@@H]1NC(=O)[C@@H](NC(=O)[C@@H](N)CCCCN)CSSC[C@@H](C(=O)N[C@@H](CC(=O)O)C(=O)O)NC(=O)[C@H](Cc2ccc(O)cc2)NC(=O)[C@H](Cc2ccccc2)NC(=O)CNC(=O)[C@H](C)NC(=O)[C@H]([C@@H](C)O)NC(=O)[C@H](CC(N)=O)NC(=O)[C@H](Cc2ccc(O)cc2)NC1=O [loop c, oxidized] (HELM PEPTIDE1{K.C.I.Y.N.T.A.G.F.Y.C.D}$PEPTIDE1,PEPTIDE1,2:R3-11:R3$$$V2.0)
- IC50 [1]: > 200000 nM
- IC50 (read-out: IC50): 90000 to 200000 nM

Compound: CC(C)C[C@@H]1NC(=O)[C@@H]2CCCN2C(=O)[C@H](CC(N)=O)NC(=O)CNC(=O)[C@H](Cc2ccccc2)NC(=O)[C@H](Cc2ccccc2)NC(=O)CNC(=O)[C@H](CCC(=O)O)NC(=O)[C@H](CCCCN)NC(=O)[C@@H](NC(=O)[C@@H](N)CCCNC(=N)N)CSSC[C@@H](C(=O)N[C@@H](CCCCN)C(=O)O)NC(=O)[C@H](CCCCN)NC(=O)[C@H](CC(=O)O)NC(=O)[C@H](C)NC(=O)[C@@H]2CCCN2C(=O)[C@H](CC(N)=O)NC(=O)[C@@H]2CCCN2C(=O)[C@H](C)NC1=O [loop d, oxidized] (HELM PEPTIDE1{R.C.K.E.G.F.F.G.N.P.L.A.P.N.P.A.D.K.C.K}$PEPTIDE1,PEPTIDE1,2:R3-19:R3$$$V2.0; N-terminus and C-terminus assumed)
- IC50 [1]: > 90000 nM
- inhibitory activity in words: No inhibitory activity
- IC50 (read-out: IC50): 90000 to 200000 nM

Compound: AVGNCNR [Th1, AVGNCNR]
- IC50 [1]: > 30000 nM
- inhibitory activity in words: inactive

Compound: IDPNAVGN [IOPNAVGN]
- IC50 [1]: 1600 nM

Compound: LTGECL [T2, LTGECL]
- IC50 [1]: 12000 nM

Compound: NIDPNA [NIDPNA]
- IC50 [1]: > 460000 nM

Compound: NIDPNAV [NIDPNAV]
- IC50 [1]: 800 nM
- IC50 (read-out: IC50): 800 nM

Compound: NIDPNAVGN [NIDPNAVGN]
- IC50 [1]: 600 nM
- IC50 (read-out: IC50): 600 nM

Compound: NVDPNAS [NVDPNAS]
- IC50 [2]: > 160000 nM

Compound: NVDPSAS [NVDPSAS]
- IC50 [2]: > 290000 nM

Compound: NVDPSAV [NVDPSAV]
- IC50 [2]: > 180000 nM

Compound: γ1III3ab4cd: recombinant chimera: loop a,b of repeat 3 with loop c,d of repeat 4 (PCPCPGGSSCAIVPKTKEVVCTHCIYNTAGFYCDRCKEGFFGNPLAPNPADKCK)
- IC50 [3]: 1100 nM

Compound: γ1III4: recombinant nidogen binding EGF-like repeat 4 of laminin γ1 chain domain III, 56 residues [reference compound]
- IC50 [3]: 0.05 nM
- IC50 (read-out: IC50): 0.05 nM

Compound: γ1III4D800,N: recombinant γ1III4 with Asp800 mutated to Asn
- IC50 [3]: 1000 nM

Compound: γ1III4N802-S: recombinant γ1III4 with Asn802 mutated to Ser
- reduction in activity of mutant (relative to wild-type γ1III4): ~ 100,000 fold

Compound: γ1III4Y819-A: recombinant γ1III4 with Tyr819 mutated to Ala
- IC50 [3]: 3 nM

Compound: γ1III4Y819/825-A, reduced: γ1III4Y819/825-A reduced and alkylated under denaturing conditions
- IC50 [3]: 430 nM

Compound: γ1III4Y819/825-A: recombinant γ1III4 with Tyr819 and Tyr825 mutated to Ala
- IC50 [3]: 1.5 nM
- decrease in activity after reduction and alkylation (reduced and alkylated under denaturing conditions versus disulfide-bonded form): ~ 300 fold

Compound: γ1III4Y825-A: recombinant γ1III4 with Tyr825 mutated to Ala
- IC50 [3]: 0.06 nM
- inhibitory activity in words: without significant effect on inhibitory activity
